The source of these data is patent US10350192B2, “Lactate dehydrogenase inhibitor and antiepileptic drug containing the same” (NATIONAL UNIVERSITY CORPORATION OKAYAMA UNIVERSITY, priority 2015, dated 2019).

Series [1] has as its system hippocampal sclerosis model mouse. Description: Epileptic spikes in hippocampal sclerosis model mouse (intrahippocampal kainate). Format: in vivo. As to the method: Preparation and measurement of hippocampal sclerosis model mouse (FIGS. 1 to 3): The hippocampal sclerosis model mouse was prepared according to a previous literature (Non-Patent Document 15). Six to seven-week-old ICR mice were used for the experiment. Mice were fully anesthetized with a mixture of ketamine (100 mg/kg) and xylazine (20 mg/kg) and then set on a brain stereotaxic apparatus. Using a micro glass electrode and a Hamilton syringe from above the hippocampus of the head, a trace amount of kainate (0.8 nmol, 40 nL) for inducing epilepsy was injected into the dorsal hippocampus (1.6 mm behind the bregma, 1.6 mm laterally from the centerline, 1.4 mm deep from the brain surface), and then a metal electrode (a diameter of 200 μm) for epileptic electroencephalography was embedded near the kainic acid injection site. In addition, a small plastic U-shaped frame for head fixation required for in vivo electrical measurements was also attached to the head. After 2 weeks or more from surgery, epileptic spikes in the hippocampus were measured. The head was fixed via the U-shaped frame. Epileptic spikes were amplified, then measured via a band-pass filter (0.5-30 Hz) and taken into a computer using an AD converter. After measurement of the baseline electroencephalogram for 30 minutes, stiripentol (300 mg/kg), isosafrole (100-300 mg/kg), sodium oxamate (250-500 mg/kg), or physiological saline was intraperitoneally administered, and then further recording was conducted for 1 hour. Sodium oxamate was dissolved in water, and stiripentol and isosafrole were dissolved in sodium carboxymethyl cellulose (1%) and administered intraperitoneally. In data analysis, high-amplitude epilepsy spikes with an amplitude of 0.5 mV or more were counted 30 minutes before and after administration, respectively, and the efficacy was evaluated by normalization using the number of epileptic spikes before administration. In the observation of morphological changes due to hippocampal sclerosis, the brain was sliced to 300 μm thickness, fixed with 10% formalin, and stained with 0.05% cresylviolet.
Medial temporal lobe epilepsy with hippocampal sclerosis is a typical refractory epilepsy in adults (epilepsy for which existing drugs are not effective). First, according to a previous literature (Non-Patent Document 15), a trace amount of kainic acid was injected to a hippocampus to prepare hippocampal sclerosis model mouse (FIG. 1A). […] This is the same finding as the already reported hippocampal sclerosis model mouse (Non-Patent Document 15), which is similar to the symptom observed in human hippocampal sclerosis (Non-Patent Document 16). When recording on the hippocampus, spontaneous high-amplitude epileptic spikes were observed (FIG. 1C; arrowhead). […]

Series [2] addresses T1, human LDH-5 (Homo sapiens, UniProt P00338). Description: Lactate dehydrogenase inhibition rate, diaphorase/INT formazan coloring reaction (492 nm). Type of series: biochemical. How it is done: Identification of a lactate dehydrogenase inhibitor having isosafrole as a scaffold (FIGS. 5 to 7): Since NADH absorbs light in the ultraviolet region (340 nm) and many compounds absorb the wavelength, NADH is not suitable for screening using a compound library. Therefore, in order to evaluate the lactate dehydrogenase activity from pyruvate to lactate, pyruvate (100 μM), NADH (100 μM) and lactate dehydrogenase (0.015 U/mL of human LDH-5) were firstly added, then allowed to react in a 100 mM sodium phosphate buffer (pH7.3) at 37° C. for 60 minutes (LDH enzyme reaction, 200 μL/well). At this stage, the background absorbance at 492 nm was first measured with a plate reader (absorbance before coloring reaction). Next, in order to measure the amount of NADH remaining in the LDH enzyme reaction, 100 μL/well of a coloring solution in which diaphorase (25 U/mL) and INT (5 mM) were dissolved was added, and then allowed to react in a 100 mM sodium phosphate buffer (pH7.3) at 37° C. for 10 minutes (coloring reaction). Since INT changes to INT formazan by diaphorase in the presence of NADH and develops color, the absorbance at 492 nm of INT formazan was measured with a plate reader (absorbance after coloring reaction).
Calculation of the inhibition rate (% Inhibition) is as follows. ΔA when the above reaction was carried out under the condition that lactate dehydrogenase was present was taken as “0% control value”, and ΔA when the above reaction was carried out under the condition that lactate dehydrogenase was absent was taken as “100% control value”. […] Then, the same reaction as the 0% control was carried out in the presence of a compound having isosafrole as a scaffold, and resultant ΔA was defined as “ΔA in the presence of the compound”. […] Specifically, inhibition rate is calculated as follows: Inhibition rate (%)=100×(ΔA in the presence of the compound−0% control value)/(100% control value−0% control value). Compounds showing inhibition rate of 100% (±25%) were described in FIGS. 6 and 7 as lactate dehydrogenase inhibitor. […]

The target in a further series is human LDH-1 (Homo sapiens, UniProt P07195). Description: Lactate dehydrogenase activity by NADH light absorption at 340 nm, LDH-1. Type of series: biochemical. The conditions noted are these: 500 μM. How it is done: (§1) Evaluation of inhibition of lactate dehydrogenase by isosafrole (FIG. 4): The activity of lactate dehydrogenase was measured by a versatile method based on light absorption of NADH. Lactate dehydrogenase is an enzyme that interconverts pyruvate and lactate. At that time, NADH and NAD are also interconverted. For lactate dehydrogenase activity from lactate to pyruvate, lactate (20 mM), NAD (200 μM) and lactate dehydrogenase were added and the reaction rate of NADH produced was measured. On the other hand, for the lactate dehydrogenase activity from pyruvate to lactate, pyruvate (1.0 mM), NADH (200 μM) and lactate dehydrogenase were added and the reaction rate of decreasing NADH was measured. Both reactions were carried out at 37° C. in 100 mM sodium phosphate buffer (pH7.3). The light absorption of NADH at 340 nm was measured using an absorptiometer at 30 second intervals for 3.5 minutes to determine the reaction rate. Two kinds of human lactate dehydrogenase (human LDH-1 and LDH-5) were examined as lactate dehydrogenase. The amount of lactate dehydrogenase was set so that the maximum rates of the two lactate dehydrogenases were approximately the same: 0.0033 units/ml of LDH-1 and 0.01 units/ml of LDH-5 for the activity from lactate to pyruvate; and 0.0017 units/ml of LDH-1 and 0.0033 units/ml of LDH-5 for the activity from pyruvate to lactate. […]

The target of series [3] is T1, human LDH-5. Nature of the series: Lactate dehydrogenase activity by NADH light absorption at 340 nm, LDH-5. Type of series: biochemical. The conditions noted are these: 500 μM. As to the method: as §1
For series [4], the system named is pentylenetetrazole-induced acute epileptic seizures. The conditions noted are these: rats, 300 mg/kg intraperitoneal; cited from earlier work.
The conditions of series [5]: rats, 300 mg/kg intraperitoneal; cited from earlier work.
Setting [6] is: 300 mg/kg intraperitoneal, high-amplitude spikes 30 min after vs before administration.

“And” between values parts separate entries of the source, which are not always exact repeats. Equal values may be shown once. “Also recorded” adds a separate entry of the source.

Sequence of human LDH-1 (P07195 2-334 limits assumed): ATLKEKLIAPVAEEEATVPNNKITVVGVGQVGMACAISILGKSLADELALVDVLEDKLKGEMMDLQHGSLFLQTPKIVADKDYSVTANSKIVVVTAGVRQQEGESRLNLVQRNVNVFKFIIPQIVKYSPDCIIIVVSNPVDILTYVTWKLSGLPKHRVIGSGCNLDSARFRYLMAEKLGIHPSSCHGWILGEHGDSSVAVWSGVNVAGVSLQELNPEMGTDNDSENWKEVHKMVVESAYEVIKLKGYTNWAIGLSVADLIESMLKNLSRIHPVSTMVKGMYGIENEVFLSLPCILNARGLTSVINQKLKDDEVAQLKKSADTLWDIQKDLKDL

Consider `C/C=C/c1ccc2c(c1)OCO2` [isosafrole, 5-(1-propenyl)-1,3-benzodioxole], for which the “antiepileptic effect on epileptic spikes” value in series [1] (setting [6]) was “significantly suppressed; also recorded: remarkable inhibitory effect on epilepsy”; in series [1] (200-300 mg/kg intraperitoneal), “remarkable antiepileptic effect”. Besides, the “inhibition of lactate dehydrogenase (LDH-5)” value was “not” against human LDH-5 [2] (250 μM); “inhibited” at human LDH-5 [2] (500 μM); “inhibits” at human LDH-5 [2] (500 μM, listed as Isosafrole). The “effect on lactate dehydrogenase activity from lactate to pyruvate” value at human LDH-1 (Lactate→Pyruvate) and on human LDH-5 [3] (Lactate→Pyruvate) was “inhibitory effect” throughout. Further, the “effect on lactate dehydrogenase activity from pyruvate to lactate” value on human LDH-1 (Pyruvate→Lactate) and on human LDH-5 [3] (Pyruvate→Lactate) was “inhibitory effect was strong” throughout.
In the case of `NC(=O)C(=O)[O-].[Na+]` [sodium oxamate], the “antiepileptic effect on epileptic spikes” value in series [1] (500 mg/kg intraperitoneal) is reported as “weak anti-epileptic effect”.
On to `CC(C)(C)C(O)/C=C/c1ccc2c(c1)OCO2` (stereo not shown) [stiripentol, 4-dimethyl-1-[(3,4-methylenedioxy)-phenyl]-1-penten-3-ol], for which the “antiepileptic effect on epileptic spikes” value in series [1] (setting [6]) is given as “scarcely inhibited; also recorded: little antiepileptic effect; also recorded: almost no inhibitory effect”. Further, in series [4], the “suppression of pentylenetetrazole-induced acute epileptic seizures” value is listed as “suppressed”. Besides, the plasma concentration in series [5] was 20-100 μg/ml and 85-427 μM.
